From PubChem BioAssay (NCI)
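Cultured in 96-well plates, cells were exposed to test compound for 48 hours across five concentrations. GI50 marks 50% less growth. Definition used: TGI = concentration required for complete inhibition of growth.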

What was measured:
Assay in all cases: inhibition of tumour cell growth, NCI panel, 48 h
[1] = test system: MDA-MB-231 breast
[2] = test system: SNB-75 CNS
[3] = test system: BT-549 breast
[4] = test system: MOLT-4 leukemia
[5] = test system: NCI-H23 lung
[6] = test system: OVCAR-5 ovarian
[7] = test system: SK-MEL-28 melanoma
[8] = test system: HL-60(TB) leukemia
[9] = test system: DU-145 prostate
[10] = test system: 786-0 renal
[11] = test system: TK-10 renal
[12] = test system: CAKI-1 renal
[13] = test system: HT29 colon
[14] = test system: SK-OV-3 ovarian
[15] = test system: SF-539 CNS
[16] = test system: EKVX NSCLC
[17] = test system: CCRF-CEM leukemia
[18] = test system: PC-3 prostate
[19] = test system: SF-268 CNS
[20] = test system: NCI-H522 lung
[21] = test system: SNB-19 CNS
[22] = test system: SF-295 CNS
[23] = test system: HOP-62 NSCLC
[24] = test system: UACC-257 melanoma
[25] = test system: OVCAR-8 ovarian
[26] = test system: SK-MEL-5 melanoma
[27] = test system: NCI/ADR-RES ovarian
[28] = test system: NCI-H460 lung
[29] = test system: SK-MEL-2 melanoma
[30] = test system: MCF7 breast
[31] = test system: NCI-H226 lung
[32] = test system: UO-31 renal
[33] = test system: HCT-116 colon
[34] = test system: RXF 393 renal
[35] = test system: OVCAR-4 ovarian
[36] = test system: OVCAR-3 ovarian
[37] = test system: A549 NSCLC
[38] = test system: SR leukemia
[39] = test system: HCC-2998 colon
[40] = test system: LOX IMVI melanoma
[41] = test system: KM12 colon
[42] = test system: ACHN renal
[43] = test system: SN12C renal
[44] = test system: SW-620 colon
[45] = test system: HS 578T breast
[46] = test system: HCT-15 colon
[47] = test system: RPMI-8226 leukemia
[48] = test system: UACC-62 melanoma
[49] = test system: U251 CNS
[50] = test system: M14 melanoma
[51] = test system: IGROV1 ovarian
[52] = test system: K-562 leukemia
[53] = test system: HOP-92 NSCLC
[54] = test system: T-47D breast
[55] = test system: MALME-3M melanoma
[56] = test system: MDA-MB-435
[57] = test system: COLO 205 colon

Work on `COC1[C@@H]2C[C@H]3C(C)(C)O[C@@](C/C=C(/C)C(=O)O)(C2=O)[C@]32Oc3c(CC=C(C)C)c4c(c(O)c3C(=O)[C@H]12)C=CC(C)(C)O4` (some centres undefined) yielded a GI50 [1] of 6.56 µM, a TGI [1] of 27.6 µM and a GI50 [2] of 19.2 µM. It also gave a TGI [2] of 54.3 µM, a GI50 [3] of 2.47 µM and a TGI [3] of 7.1 µM. It also gave a GI50 [4] of 3.61 µM, a TGI [4] of 36.8 µM and a GI50 [5] of 16.4 µM. For the same molecule, the TGI [5] was 50.6 µM, the GI50 [6] was 20.1 µM and the TGI [6] was 41.7 µM. It also gave a GI50 [7] of 11.9 µM, a TGI [7] of 26.6 µM and a GI50 [8] of 1.53 µM. It also gave a TGI [8] of 4.99 µM, a GI50 [9] of 13.2 µM and a TGI [9] of 26.1 µM. The GI50 [10] was 2.49 µM, the TGI [10] was 5.97 µM and the GI50 [11] was 18.8 µM. The TGI [11] was 33.5 µM, the GI50 [12] was 16.5 µM and the TGI [12] was 33.1 µM. It also gave a GI50 [13] of 10.2 µM, a TGI [13] of 28.8 µM and a GI50 [14] of 23.4 µM. It also gave a TGI [14] of 53.4 µM, a GI50 [15] of 14.3 µM and a TGI [15] of 28.5 µM. For the same molecule, the GI50 [16] was 10.3 µM, the TGI [16] was 28.9 µM and the GI50 [17] was 3.73 µM. The TGI [17] was 53.1 µM, the GI50 [18] was 6.03 µM and the TGI [18] was 22.2 µM. The GI50 [19] was 12.8 µM, the TGI [19] was 31.7 µM and the GI50 [20] was 15.3 µM. For the same molecule, the TGI [20] was 32.3 µM, the GI50 [21] was 15.6 µM and the TGI [21] was 30.7 µM. It also gave a GI50 [22] of 15.3 µM, a TGI [22] of 34.8 µM and a GI50 [23] of 16.3 µM. The TGI [23] was 32.4 µM, the GI50 [24] was 14.7 µM and the TGI [24] was 35.8 µM. The GI50 [25] was 6.82 µM, the TGI [25] was 29.5 µM and the GI50 [26] was 12.5 µM. The TGI [26] was 25.9 µM, the GI50 [27] was 15.2 µM and the TGI [27] was > 100 µM. The GI50 [28] was 8.15 µM, the TGI [28] was 25.8 µM and the GI50 [29] was 19 µM. For the same molecule, the TGI [29] was 42.1 µM, the GI50 [30] was 3.22 µM and the TGI [30] was 19.1 µM. For the same molecule, the GI50 [31] was 18.9 µM, the TGI [31] was 44.8 µM and the GI50 [32] was 6.73 µM. The TGI [32] was 21.3 µM, the GI50 [33] was 3.07 µM and the TGI [33] was 9.71 µM. The GI50 [34] was 4.54 µM, the TGI [34] was 18.2 µM and the GI50 [35] was 12.1 µM. The TGI [35] was 29.9 µM, the GI50 [36] was 3.77 µM and the TGI [36] was 14.9 µM. The GI50 [37] was 19.7 µM, the TGI [37] was 49.9 µM and the GI50 [38] was 2.43 µM. The TGI [38] was > 100 µM, the GI50 [39] was 16.8 µM and the TGI [39] was 34.4 µM. The GI50 [40] was 2.15 µM, the TGI [40] was 5.31 µM and the GI50 [41] was 14.5 µM. For the same molecule, the TGI [41] was 31.1 µM, the GI50 [42] was 4.91 µM and the TGI [42] was 18.4 µM. The GI50 [43] was 6.85 µM, the TGI [43] was 29.7 µM and the GI50 [44] was 3.05 µM. It also gave a TGI [44] of 10.8 µM, a GI50 [45] of 9.58 µM and a TGI [45] of 78 µM. For the same molecule, the GI50 [46] was 2.97 µM, the TGI [46] was 13.5 µM and the GI50 [47] was 2.56 µM. For the same molecule, the TGI [47] was 8.1 µM, the GI50 [48] was 13.2 µM and the TGI [48] was 29.4 µM. For the same molecule, the GI50 [49] was 4.35 µM, the TGI [49] was 16.1 µM and the GI50 [50] was 6.57 µM. For the same molecule, the TGI [50] was 24.4 µM, the GI50 [51] was 3.27 µM and the TGI [51] was 10.7 µM. It also gave a GI50 [52] of 3.92 µM, a TGI [52] of 31.4 µM and a GI50 [53] of 10.1 µM. It also gave a TGI [53] of 25.9 µM, a GI50 [54] of 3.14 µM and a TGI [54] of 17.6 µM. It also gave a GI50 [55] of 14.2 µM, a TGI [55] of 29.5 µM and a GI50 [56] of 11.6 µM. For the same molecule, the TGI [56] was 27.8 µM, the GI50 [57] was 17.2 µM and the TGI [57] was 40.7 µM.
